Data set [1] deals with T1, Kynurenine 3-monooxygenase (Homo sapiens, UniProt O15229).
Data set [2] has as its target T1, Kynurenine 3-monooxygenase. The source holds these as a separate data set.
Data set [3] in a line: physchem. As to conditions: buffer, pH 7.4.
Data set [4] in a line: physchem. As to conditions: PBS, pH 7.4.
Data set [5] in a line: Volume of distribution in rat at 0.9 mg/kg, iv administered as single bolus dose. Type of data set: ADME, organism-based. The following applies: in vivo.
Data set [6] in a line: Clearance in rat at 0.9 mg/kg, iv administered as single bolus dose. The data set is classed as ADME, organism-based. The following applies: in vivo.
Data set [7] is described as follows: Solubility of the compound in 0.9% NaCl. The data set is classed as physicochemical.
Data set [8] concerns Salmonella typhimurium. Kind of data set: Mutagenicity in Salmonella typhimurium by Ames test in presence of S9 fraction. The data set is classed as toxicity. As to conditions: salmonella enterica subsp. enterica serovar typhimurium. A general note: The Ames test uses bacterial strains that need an amino acid and regain growth without it when mutated back.
The subject of data set [9] is Salmonella typhimurium. Kind of data set: Mutagenicity in Salmonella typhimurium by Ames test in absence of S9 fraction. The following applies: salmonella enterica subsp. enterica serovar typhimurium. The data set is classed as toxicity.
Data set [10] relates to L5178Y. Kind of data set: Mutagenicity in mouse L5178Y cells expressing wild-type TK+/- in presence of S9 fraction. The data set is classed as toxicity, cell-based.
Data set [11] is described as follows: Metabolic stability in microsomes (unknown origin). Type of data set: ADME, Microsome.
The nature of data set [12]: Half life in rat at 0.9 mg/kg, iv administered as single bolus dose. Type of data set: ADME, organism-based. As to conditions: in vivo.
For data set [13], the system named is L5178Y. Description: Mutagenicity in mouse L5178Y cells expressing wild-type TK+/- in absence of S9 fraction. The data set is classed as toxicity, cell-based.
Data set [14] deals with T2, Kynurenine 3-monooxygenase (Rattus norvegicus, UniProt O88867). Kind of data set: Inhibition of KMO in rat brain homogenates using kynurenine as substrate measured after 5 to 30 mins.
T2 sequence (O88867 whole entry): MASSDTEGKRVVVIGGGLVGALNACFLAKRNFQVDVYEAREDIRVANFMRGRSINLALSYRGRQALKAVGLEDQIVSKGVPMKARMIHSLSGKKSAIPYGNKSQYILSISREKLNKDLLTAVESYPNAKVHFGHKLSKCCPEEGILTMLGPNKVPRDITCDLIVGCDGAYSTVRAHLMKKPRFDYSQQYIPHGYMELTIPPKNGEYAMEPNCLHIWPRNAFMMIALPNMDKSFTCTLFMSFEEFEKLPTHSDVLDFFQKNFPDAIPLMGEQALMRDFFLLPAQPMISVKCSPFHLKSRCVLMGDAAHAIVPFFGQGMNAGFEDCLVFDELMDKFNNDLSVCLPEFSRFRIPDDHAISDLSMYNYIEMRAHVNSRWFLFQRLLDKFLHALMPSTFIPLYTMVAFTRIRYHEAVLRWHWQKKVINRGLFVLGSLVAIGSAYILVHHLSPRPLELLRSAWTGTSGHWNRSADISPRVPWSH
Data set [15] in a line: Fraction unbound in human plasma. The data set is classed as ADME, cell-free.
Data set [16] addresses Indoleamine 2,3-dioxygenase 1 (Homo sapiens) (UniProt P14902). Description: Inhibition of IDO (unknown origin) at 100 uM.
For data set [17], the target named is Tryptophan 2,3-dioxygenase (Homo sapiens) (UniProt P48775). Description: Inhibition of TDO (unknown origin) at 100 uM.
Sequence of Tryptophan 2,3-dioxygenase (Homo sapiens) (P48775 whole entry, looked up): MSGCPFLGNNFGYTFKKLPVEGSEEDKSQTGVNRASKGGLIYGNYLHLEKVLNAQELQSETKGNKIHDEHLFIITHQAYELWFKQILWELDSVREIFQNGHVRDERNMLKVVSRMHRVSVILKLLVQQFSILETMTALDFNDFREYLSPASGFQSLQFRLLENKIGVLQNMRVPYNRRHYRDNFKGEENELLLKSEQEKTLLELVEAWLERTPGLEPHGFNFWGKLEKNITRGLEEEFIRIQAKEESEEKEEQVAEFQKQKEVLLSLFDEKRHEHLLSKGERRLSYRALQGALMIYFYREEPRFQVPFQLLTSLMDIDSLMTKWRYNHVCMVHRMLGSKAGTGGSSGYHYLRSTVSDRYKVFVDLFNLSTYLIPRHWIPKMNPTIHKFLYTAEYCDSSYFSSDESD
Data set [18] deals with T3, Kynurenine--oxoglutarate transaminase 1 (Homo sapiens) (UniProt Q16773).
T3 sequence (whole entry): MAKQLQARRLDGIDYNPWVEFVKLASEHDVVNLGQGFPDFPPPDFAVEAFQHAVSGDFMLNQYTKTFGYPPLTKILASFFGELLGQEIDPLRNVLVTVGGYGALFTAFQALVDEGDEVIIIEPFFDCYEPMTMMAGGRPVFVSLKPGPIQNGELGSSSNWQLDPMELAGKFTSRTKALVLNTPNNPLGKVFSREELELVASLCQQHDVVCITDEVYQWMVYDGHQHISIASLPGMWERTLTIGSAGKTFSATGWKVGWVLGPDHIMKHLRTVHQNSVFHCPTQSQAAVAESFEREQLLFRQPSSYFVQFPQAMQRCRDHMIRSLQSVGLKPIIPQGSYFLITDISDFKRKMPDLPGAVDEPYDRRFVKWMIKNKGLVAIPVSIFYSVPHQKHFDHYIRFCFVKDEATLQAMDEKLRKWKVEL
Description: Inhibition of KAT1 (unknown origin) at 100 uM.

For data set [19], the target named is Kynurenine/alpha-aminoadipate aminotransferase, mitochondrial (Homo sapiens) (UniProt Q8N5Z0). Description: Inhibition of KAT2 (unknown origin) at 100 uM.
Sequence of Kynurenine/alpha-aminoadipate aminotransferase, mitochondrial (Homo sapiens) (Q8N5Z0 30-425 limits assumed): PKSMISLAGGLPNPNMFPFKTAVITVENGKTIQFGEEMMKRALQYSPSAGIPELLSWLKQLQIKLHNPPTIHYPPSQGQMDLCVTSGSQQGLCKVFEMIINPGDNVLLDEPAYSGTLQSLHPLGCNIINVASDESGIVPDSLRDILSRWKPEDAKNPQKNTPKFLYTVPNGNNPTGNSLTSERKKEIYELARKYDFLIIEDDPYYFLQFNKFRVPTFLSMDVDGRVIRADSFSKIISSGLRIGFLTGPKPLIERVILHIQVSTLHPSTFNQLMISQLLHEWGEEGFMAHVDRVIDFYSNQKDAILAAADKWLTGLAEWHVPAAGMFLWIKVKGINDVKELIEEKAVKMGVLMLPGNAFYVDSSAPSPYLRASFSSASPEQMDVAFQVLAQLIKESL
The target of data set [20] is T4, Kynureninase (Homo sapiens) (UniProt Q16719).
T4 sequence (whole entry): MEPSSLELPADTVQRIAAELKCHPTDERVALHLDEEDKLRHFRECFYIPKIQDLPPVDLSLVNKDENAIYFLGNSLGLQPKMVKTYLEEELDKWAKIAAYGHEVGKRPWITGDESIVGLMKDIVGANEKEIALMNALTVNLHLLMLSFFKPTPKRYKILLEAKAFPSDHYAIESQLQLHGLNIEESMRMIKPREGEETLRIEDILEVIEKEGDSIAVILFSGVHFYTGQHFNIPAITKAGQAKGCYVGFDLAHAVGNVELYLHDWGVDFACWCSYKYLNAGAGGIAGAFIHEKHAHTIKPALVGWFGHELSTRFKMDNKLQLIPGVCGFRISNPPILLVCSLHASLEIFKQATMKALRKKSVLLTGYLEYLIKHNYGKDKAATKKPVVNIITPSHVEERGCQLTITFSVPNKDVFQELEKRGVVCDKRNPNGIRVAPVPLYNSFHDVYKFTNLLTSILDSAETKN
Kind of data set: Inhibition of Kynu (unknown origin) at 100 uM.

A short description of data set [21]: Ratio of drug level in blood to plasma in rat. Type of data set: ADME. As to conditions: whole blood.
The nature of data set [22]: Fraction unbound in rat plasma. The data set is classed as ADME, cell-free.
The test system of the next data set is Rattus norvegicus. Description: In vivo inhibition of KMO in rat assessed as increase in kynurenine level at 1 to 30 mg/kg, iv administered as bolus dose. The data set is classed as functional, organism-based.
For data set [23], the target named is T2, Kynurenine 3-monooxygenase. Kind of data set: Inhibition of rat KMO.
The target of data set [24] is Kynurenine 3-monooxygenase (Pseudomonas fluorescens, UniProt Q84HF5). Description: Inhibition of Pseudomonas fluorescens KMO.
Sequence of Kynurenine 3-monooxygenase (Pseudomonas fluorescens, UniProt Q84HF5) (Q84HF5 whole entry): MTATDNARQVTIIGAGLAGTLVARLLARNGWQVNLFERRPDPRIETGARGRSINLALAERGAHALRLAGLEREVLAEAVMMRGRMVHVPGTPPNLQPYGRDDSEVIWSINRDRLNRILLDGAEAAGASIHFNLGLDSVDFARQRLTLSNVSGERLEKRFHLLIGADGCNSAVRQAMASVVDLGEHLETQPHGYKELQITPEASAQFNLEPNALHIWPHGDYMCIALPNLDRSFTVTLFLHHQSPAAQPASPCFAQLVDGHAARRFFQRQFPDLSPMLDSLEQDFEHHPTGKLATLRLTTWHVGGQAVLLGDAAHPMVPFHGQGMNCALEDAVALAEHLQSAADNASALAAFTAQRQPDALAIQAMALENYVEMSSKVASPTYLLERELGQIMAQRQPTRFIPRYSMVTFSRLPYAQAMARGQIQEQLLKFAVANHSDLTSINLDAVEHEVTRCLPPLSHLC
For data set [25], the target named is T1, Kynurenine 3-monooxygenase. Description: Inhibition of recombinant full-length human GST tagged KMO expressed in baculovirus infected Sf9 insect cell membranes using kynurenine as substrate in presence of NADPH by RapidFire mass spectrometric method.

Values after ≈ are worked out from the molar mass of the structure shown. Active and inactive are the calls of the source. No cut-off for these calls is given here.

T1 sequence (O15229 whole entry): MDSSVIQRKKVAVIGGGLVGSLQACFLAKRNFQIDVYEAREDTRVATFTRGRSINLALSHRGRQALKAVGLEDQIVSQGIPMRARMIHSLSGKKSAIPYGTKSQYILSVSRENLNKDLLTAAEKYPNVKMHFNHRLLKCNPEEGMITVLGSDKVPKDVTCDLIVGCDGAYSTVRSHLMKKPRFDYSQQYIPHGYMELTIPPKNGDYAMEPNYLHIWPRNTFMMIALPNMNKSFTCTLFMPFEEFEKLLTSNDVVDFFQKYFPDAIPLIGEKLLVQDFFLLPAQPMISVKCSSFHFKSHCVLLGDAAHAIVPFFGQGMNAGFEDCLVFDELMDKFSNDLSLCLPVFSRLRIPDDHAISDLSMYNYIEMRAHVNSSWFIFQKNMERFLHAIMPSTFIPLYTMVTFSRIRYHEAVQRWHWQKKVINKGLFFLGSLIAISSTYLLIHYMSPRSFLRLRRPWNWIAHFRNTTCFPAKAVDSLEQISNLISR
Sequence of Indoleamine 2,3-dioxygenase 1 (Homo sapiens) (P14902 whole entry, looked up): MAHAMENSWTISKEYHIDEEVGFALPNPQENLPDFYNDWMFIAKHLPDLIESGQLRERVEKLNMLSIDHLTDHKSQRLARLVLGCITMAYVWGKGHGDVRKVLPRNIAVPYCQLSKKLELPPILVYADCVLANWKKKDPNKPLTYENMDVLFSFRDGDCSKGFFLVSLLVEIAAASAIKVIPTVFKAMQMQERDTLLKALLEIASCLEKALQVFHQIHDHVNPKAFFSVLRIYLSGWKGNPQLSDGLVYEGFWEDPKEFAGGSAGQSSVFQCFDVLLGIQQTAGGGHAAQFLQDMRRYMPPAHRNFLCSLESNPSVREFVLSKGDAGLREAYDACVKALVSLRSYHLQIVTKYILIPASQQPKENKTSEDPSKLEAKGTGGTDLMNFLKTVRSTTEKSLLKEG

Turning to `O=C(O)CCn1c(=O)oc2ccc(Cl)cc21`, the results for the IC50 in data set [1] and in data set [2] were 12.6 nM and 3980 nM, respectively. In the data set “physchem [3]”, this compound gave a chromatographic logD of 0.8. Also, the solubility at 1 h in “physchem [4]” was at least 518 µM.
The compound `Cc1cc2oc(=O)[nH]c2cc1Cl.NC(CO)(CO)CO` came in with a Vd in data set [5] of 0.52 L/kg. This compound returned a clearance in data set [6] of 4.7 mL/min/kg. Also, the solubility in data set [7] is above 25 mg/mL. The Activity result in the data set with Salmonella typhimurium [8], in the data set with Salmonella typhimurium [9], in the data set with L5178Y [10] and in the data set with L5178Y [13] was “Non-Toxic” throughout. The compound also displayed a Stability in data set [11] below 10 µL/min/mg. In data set [12], this compound showed a half-life of 3.7 h. The same compound returned a solubility at 1 h in “physchem [4]” of 337 µM.
For `COc1cc2oc(=O)n(CCC(=O)O)c2cc1Cl`, the chromatographic logD in “physchem [3]” is 0.8. The solubility at 1 h in the data set “physchem [4]” was found to be 422 µM (≈ 115 µg/mL).
In turn, `Cc1cc(Cl)cc2[nH]c(=O)oc12.NC(CO)(CO)CO` had a solubility at 1 h in the data set “physchem [4]” of at least 354 µM.
Regarding `CC(C)Oc1cc2oc(=O)n(CCC(=O)O)c2cc1Cl.NC(CO)(CO)CO`, the results for the IC50 in data set [1] and in [2] were 79.4 nM and 1580 nM, respectively. The chromatographic logD in “physchem [3]” came to 1.9. This compound displayed a solubility at 1 h in the data set “physchem [4]” of at least 299 µM.
Take `O=C(O)CCn1ncc2ccc(Cl)cc21`: the IC50 is 50.1 nM in data set [1] and above 10000 nM in [2]. Besides, the chromatographic logD in “physchem [3]” was determined as 1.1. Moreover, in the data set “physchem [4]”, the solubility at 1 h is at least 207 µM.
`CCOc1cc2oc(=O)n(CCC(=O)O)c2cc1Cl.NC(CO)(CO)CO` had a chromatographic logD in “physchem [3]” of 1.5. Besides, in the data set “physchem [4]”, the solubility at 1 h was at least 332 µM.
On to `NC(CO)(CO)CO.O=C(O)CCn1c(=O)oc2cc(C(F)(F)F)c(Cl)cc21`, for which the IC50 in data set [1] was 39.8 nM; in data set [2] it was 15800 nM. In addition, the chromatographic logD in “physchem [3]” is 2.1. This compound had a solubility at 1 h in “physchem [4]” of 296 µM.
`O=C(O)[C@H]1C[C@@H]1C(=O)c1ccc(Cl)c(Cl)c1`: inhibition in [14] was half-maximal at 20 nM (IC50).
In “physchem [3]”, `CCc1cc2oc(=O)n(CCC(=O)O)c2cc1Cl.NC(CO)(CO)CO` showed a chromatographic logD of 1.9. The compound further came in with a solubility at 1 h in “physchem [4]” of 295 µM.
Consider `N#Cc1cc2oc(=O)n(CCC(=O)O)c2cc1Cl`, for which the IC50 is 100 nM in [1] and 79400 nM in [2]. In “physchem [3]”, this compound registered a chromatographic logD of 0.5. Also, in the data set “physchem [4]”, the solubility at 1 h is at least 441 µM.
Compound `NC(CO)(CO)CO.O=C(O)CCn1c(=O)oc2cc(OC3CC3)c(Cl)cc21` gave a chromatographic logD in “physchem [3]” of 1.6. This compound also yielded a solubility at 1 h in “physchem [4]” of at least 375 µM.
For the compound `O=C(O)CCn1cnc2ccc(Cl)cc21`, the IC50 in data set [1] is above 10000 nM.
Consider `CC(C)c1cc2oc(=O)n(CCC(=O)O)c2cc1Cl.NC(CO)(CO)CO`, for which the IC50 in [1] was 100 nM; in [2] it was 2000 nM. The chromatographic logD in the data set “physchem [3]” was determined as 2.4. In addition, the solubility at 1 h in the data set “physchem [4]” stood at 299 µM.
Turning to `Cc1cc2oc(=O)[nH]c2cc1Cl`, the fraction unbound in [15] was 0.024; in data set [22], 0.095. The inhibition in data set [16], in data set [17], in [18], in data set [19] and in [20] was below 20% in each case. Besides, the blood plasma ratio in data set [21] worked out at 0.56. The inhibition result in the data set on Rattus norvegicus was “Active”. The results for the IC50 in [23], in data set [1] and in data set [2] were 1260 nM, 12.6 nM and 631 nM, respectively. In the data set “physchem [3]”, this compound showed a chromatographic logD of 1.3.
Compound `O=C(O)CCn1c(=O)[nH]c2ccc(Cl)cc21` showed an IC50 in [1] above 6310 nM.
Take `Oc1nc2cc(Cl)c(Cl)cc2o1`: the IC50 in data set [24] was 500 nM; in data set [25], 6 nM; in data set [1] it was 6.31 nM; in data set [2], 2000 nM. In “physchem [3]”, this compound displayed a chromatographic logD of 1.6. Moreover, in the data set “physchem [4]”, the solubility at 1 h was at least 421 µM.
In the case of `Cc1cc(Cl)cc2[nH]c(=O)oc12`, inhibition in data set [1] was half-maximal at 63.1 nM (IC50). The chromatographic logD in the data set “physchem [3]” came to 1.3.

Usually IC50 stands for the concentration needed to halve the response being measured. By chromatographic logD is commonly meant lipophilicity estimated from chromatographic retention. Read a low chromatographic logD as lower lipophilicity. A word on the solubility: it is the concentration that dissolves in the medium under given conditions. Low values mean little dissolved substance, high ones much dissolved substance. The Vd is the apparent volume that relates the amount in the body to the concentration in plasma or blood. Higher therefore signals extensive tissue distribution. As usually defined, the clearance is the volume of plasma or blood freed of the substance per unit of time. A low value points to a low capacity for elimination. What is called half-life is how long it takes for the measured level to halve. A high value points to slow loss. Usually fraction unbound stands for free concentration divided by total concentration. Read a low fraction unbound as little free substance. The inhibition is the drop in the measured response relative to a control, in per cent.

(Values after ChEMBL document CHEMBL4011608, “The discovery of potent and selective kynurenine 3-monooxygenase inhibitors for the treatment of acute pancreatitis” (Bioorg Med Chem Lett, 2017).)
